Converted amounts (≈) assume the structure as drawn. The source made the active and inactive calls. The calls are words filed in the database; no cut-off is given here.
Legend:
HL-60 = assay: Cytotoxicity in human HL60 cells assessed as reduction in cel viability incubated for 24 or 72 hrs by SRB or MTT assay; assay type: functional, cell-based
K562 = assay: Cytotoxicity in human K562 cells assessed as reduction in cel viability incubated for 24 or 72 hrs by SRB or MTT assay; assay type: functional, cell-based
Bel-7402 = assay: Cytotoxicity in human Bel7402 cells assessed as reduction in cel viability incubated for 24 or 72 hrs by SRB or MTT assay; assay type: functional, cell-based
HCT-116 = assay: Cytotoxicity in human HCT116 cells assessed as reduction in cel viability incubated for 24 or 72 hrs by SRB or MTT assay; assay type: functional, cell-based
A549 = assay: Cytotoxicity in human A549 cells assessed as reduction in cel viability incubated for 24 or 72 hrs by SRB or MTT assay; assay type: functional, cell-based
HeLa = assay: Cytotoxicity in human HeLa cells assessed as reduction in cel viability incubated for 24 or 72 hrs by SRB or MTT assay; assay type: functional, cell-based
L02 = assay: Cytotoxicity in human L02 cells assessed as reduction in cel viability incubated for 24 or 72 hrs by SRB or MTT assay; assay type: cell-based
MGC-803 = assay: Cytotoxicity in human MGC803 cells assessed as reduction in cel viability incubated for 24 or 72 hrs by SRB or MTT assay; assay type: functional, cell-based
[1] = Cytotoxicity in human HO8910 cells assessed as reduction in cel viability incubated for 24 or 72 hrs by SRB or MTT assay; assay type: functional, cell-based; settings: HO-8910
SH-SY5Y = assay: Cytotoxicity in human SH-SY5Y cells assessed as reduction in cel viability incubated for 24 or 72 hrs by SRB or MTT assay; assay type: functional, cell-based
PC-3 = assay: Cytotoxicity in human PC3 cells assessed as reduction in cel viability incubated for 24 or 72 hrs by SRB or MTT assay; assay type: functional, cell-based
MDA-MB-231 = assay: Cytotoxicity in human MDA-MB-231 cells assessed as reduction in cel viability incubated for 24 or 72 hrs by SRB or MTT assay; assay type: functional, cell-based
Penicillium crustosum = assay: Antimicrobial activity against Penicillium crustosum PRB-2 assessed as inhibition of microbial growth at 25 ug/disk by disk diffusion test; assay type: functional, organism-based
Xylaria sp. = assay: Antimicrobial activity against Xylaria sp. HDN13-249 assessed as inhibition of microbial growth at 25 ug/disk by disk diffusion test; assay type: functional
Mycolicibacterium phlei = assay: Antimicrobial activity against Mycobacterium phlei by BSAC standardized disc susceptibility testing method; assay type: functional
Bacillus subtilis = assay: Antimicrobial activity against Bacillus subtilis by BSAC standardized disc susceptibility testing method; assay type: functional
Vibrio parahaemolyticus = assay: Antimicrobial activity against Vibrio parahaemolyticus by BSAC standardized disc susceptibility testing method; assay type: functional

Compound | IC50 (HL-60) [µM] | IC50 (K562) [µM] | IC50 (Bel-7402) [µM] | IC50 (HCT-116) [µM] | IC50 (A549) [µM] | IC50 (HeLa) [µM] | IC50 (L02) [µM] | IC50 (MGC-803) [µM] | IC50 [1] [µM] | IC50 (SH-SY5Y) [µM] | IC50 (PC-3) [µM] | IC50 (MDA-MB-231) [µM] | growth inhibition (GI) (Penicillium crustosum) | growth inhibition (GI) (Xylaria sp.) | MIC (Mycolicibacterium phlei) [µM] | MIC (Bacillus subtilis) [µM] | MIC (Vibrio parahaemolyticus) [µM]
CCCCC[C@H](O)CCCCCCCCCCCc1cc(O)cc(O)c1C(=O)O | > 30 | > 30 | > 30 | > 30 | > 30 | > 30 | > 30 | > 30 | > 30 | > 30 | > 30 | > 30 | inactive | inactive | 6.25 (≈ 2.55 µg/mL) | > 200 | 12.5 (≈ 5.11 µg/mL)
CCCCC[C@@H](CCCCCCCCCCCc1cc(O)cc(O)c1C(=O)O)OS(=O)(=O)O | > 30 | > 30 | > 30 | > 30 | > 30 | > 30 | > 30 | > 30 | > 30 | > 30 | > 30 | > 30 | inactive | inactive |  |  | 
CCCCC[C@H](O)CCCCCCCCCCCc1cc(O)cc(O)c1 | > 30 | > 30 | > 30 | > 30 | > 30 | > 30 | > 30 | > 30 | > 30 | > 30 | > 30 | > 30 | inactive | inactive | 25 (≈ 9.11 µg/mL) | > 200 | > 200
O=C(O)c1cn(C2CC2)c2cc(N3CCNCC3)c(F)cc2c1=O [CIPROFLOXACIN] |  |  |  |  |  |  |  |  |  |  |  |  |  |  | 1.56 (≈ 0.517 µg/mL) | 1.56 (≈ 0.517 µg/mL) | 12.5 (≈ 4.14 µg/mL)

— ChEMBL document CHEMBL4339248, “Secondary Metabolites Produced by Combined Culture of Penicillium crustosum and a Xylaria sp” (J Nat Prod, 2019)
